For the experiment, the system named is Bovine cardiac myofibrils. In words: In vitro model of dose-dependent myofibril ATPase modulation (AC1.4, pyruvate kinase/lactate dehydrogenase-coupled ATPase assay at pCa25). The conditions noted are these: concentration at which ATPase activity was 1.4-fold higher than the bottom of the dose curve, mean of a minimum of two independent tests. In kind it is biochemical. The essentials: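 ATP turnover tracked as NADH absorbance loss at 340 nm, coupled via pyruvate kinase/lactate dehydrogenase, with 1 mM ATP, 2 mM MgCl2 and 12 mM K-PIPES at pH 6.80 (22° C) under EGTA/CaCl2 calcium buffering. Substrate was detergent-treated bovine cardiac myofibrils; 4-parameter curve fit, AC1.4 averaged over at least two runs.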
The molecule `NC(=O)C1(c2cccc(C(=O)N3[C@@H](C(=O)N[C@@H](c4cc(F)c(Cl)cc4F)C4COC4)C[C@H]4C[C@H]43)c2)CC1` [Example 184, (1R,3R,5R)-2-(3-(1-carbamoylcyclopropyl)benzoyl)-N-((R)-(4-chloro-2,5-difluorophenyl)(3-oxetanyl)methyl)-2-azabicyclo[3.1.0]hexane-3-carboxamide] gave an AC1.4 of 0.3365 µM.

Take `NS(=O)(=O)c1ccc(Cl)c(C(=O)N2CCC[C@@H]2C(=O)N[C@@H](c2ccc(C(F)(F)F)cc2F)C2CC2)c1` [Example 687, 1-(2-chloro-5-sulfamoylbenzoyl)-N-((R)-cyclopropyl(2-fluoro-4-(trifluoromethyl)phenyl)methyl)-D-prolinamide]: the AC1.4 turned out to be 5.299 µM.

`CS(=O)(=O)c1cccc(C(=O)N2[C@@H](C(=O)N[C@@H](c3cc(F)c(Cl)cc3F)C3(F)COC3)C[C@H]3C[C@H]32)c1` [Example 812, (1R,3R,5R)-N-((S)-(4-Chloro-2,5-difluorophenyl)(3-fluorooxetan-3-yl)methyl)-2-(3-(methylsulfonyl)benzoyl)-2-azabicyclo[3.1.0]hexane-3-carboxamide] yielded an AC1.4 of 1.5766 µM.

As to `O=C(NCc1ccc(C(F)(F)F)cc1)[C@H]1CCCN1C(=O)[C@H]1CCCN(S(=O)(=O)N2CC(OC(F)(F)F)C2)C1` [Example 535, 1-(((3S)-1-((3-(trifluoromethoxy)-1-azetidinyl)sulfonyl)-3-piperidinyl)carbonyl)-N-(4-(trifluoromethyl)benzyl)-D-prolinamide], the AC1.4 was found to be 2.69 µM.

Molecule `O=C(NCc1ccc(C(F)(F)F)cc1)[C@H]1CCCN1C(=O)c1cccc(S(=O)(=O)N2CC(F)(F)C2)c1` [Example 461, 1-((3-((3,3-difluoro-1-azetidinyl)sulfonyl)phenyl)carbonyl)-N-(4-(trifluoromethyl)benzyl)-D-prolinamide] displayed an AC1.4 of 1.9174 µM.

`O=C(N[C@@H](c1ccc(C(F)(F)F)cc1F)C1CC1)[C@H]1C[C@H]2C[C@H]2N1C(=O)c1ccnc(C(F)(F)F)c1` [Example 495, (1R,3R,5R)-N-((R)-cyclopropyl(2-fluoro-4-(trifluoromethyl)phenyl)methyl)-2-((2-(trifluoromethyl)-4-pyridinyl)carbonyl)-2-azabicyclo[3.1.0]hexane-3-carboxamide] gave an AC1.4 of 2.278 µM.

Molecule `NS(=O)(=O)c1cccc(C(=O)N2[C@@H](C(=O)N[C@@H](c3cc(F)c(Cl)cc3F)C3CC3)C[C@H]3C[C@H]32)c1` [Example 139, (1R,3R,5R)-N-((R)-(4-chloro-2,5-difluorophenyl)(cyclopropyl)methyl)-2-(3-sulfamoylbenzoyl)-2-azabicyclo[3.1.0]hexane-3-carboxamide] displayed an AC1.4 of 0.232 µM.

In the case of `O=C(N[C@@H](c1ccc(C(F)(F)F)cc1F)C1CC1)[C@H]1CCCN1C(=O)c1cccc(C2CCC2)c1` [Example 530, 1-(3-cyclobutylbenzoyl)-N-((R)-cyclopropyl(2-fluoro-4-(trifluoromethyl)phenyl)methyl)-D-prolinamide], the AC1.4 was 2.614 µM.

Molecule `CCNc1ccccc1C(=O)N1[C@@H](C(=O)N[C@@H](c2ccc(C(F)(F)F)cc2F)C2COC2)C[C@H]2C[C@H]21` [Example 217, (1R,3R,5R)-2-(2-(ethylamrno)benzoyl)-N-((R)-(2-fluoro-4-(trifluoromethyl)phenyl)(3-oxetanyl)methyl)-2-azabicyclo[3.1.0]hexane-3-carboxamide] came in with an AC1.4 of 0.4751 µM.

On to `Cc1cccc(C(=O)N2CCC[C@@H]2C(=O)N[C@@H](c2ccc(C(F)(F)F)cc2F)C2CC2)c1` [Example 715, N-((R)-cyclopropyl(2-fluoro-4-(trifluoromethyl)phenyl)methyl)-1-(3-methylbenzoyl)-D-prolinamide], for which the AC1.4 turned out to be 6.057 µM.

As for `O=C(N[C@@H](c1cc(F)c(Cl)cc1F)C1COC1)[C@H]1C[C@@H](O)CN1C(=O)c1cncc(C(F)(F)F)c1` [Example 638, (4R)-N-((R)-(4-chloro-2,5-difluorophenyl)(3-oxetanyl)methyl)-4-hydroxy-1-((5-(trifluoromethyl)-3-pyridinyl)carbonyl)-D-prolinamide], the AC1.4 amounted to 4.1835 µM.

`COc1cc(F)c([C@H](NC(=O)[C@H]2C[C@H]3C[C@H]3N2C(=O)c2cccc(S(C)(=O)=O)c2)C2CC2)cc1F` [Example 747, (1R,3R,5R)-N-((R)-cyclopropyl(2,5-difluoro-4-methoxyphenyl)methyl)-2-(3-(methylsulfonyl)benzoyl)-2-azabicyclo[3.1.0]hexane-3-carboxamide] showed an AC1.4 of 7.287 µM.

As for `N#Cc1cccc(C(=O)N2[C@@H](C(=O)N[C@@H](c3ccc(C(F)(F)F)cc3F)C3COC3)C[C@H]3C[C@H]32)c1` [Example 366, (1R,3R,5R)-2-(3-cyanobenzoyl)-N-((R)-(2-fluoro-4-(trifluoromethyl)phenyl)(3-oxetanyl)methyl)-2-azabicyclo[3.1.0]hexane-3-carboxamide], the AC1.4 was 1.1445 µM.

For `CS(=O)(=O)c1cccc(C(=O)N2C[C@@H](F)C[C@@H]2C(=O)N[C@@H](c2cc(F)c(Cl)cc2F)C2CC2)c1` [Example 201, (4S)-N-((R)-(4-chloro-2,5-difluorophenyl)(cyclopropyl)methyl)-4-fluoro-1-(3-(methylsulfonyl)benzoyl)-D-prolinamrde], the AC1.4 amounted to 0.411 µM.

In the case of `CS(=O)(=O)c1cccc(C(=O)N2C=CC[C@@H]2C(=O)N[C@@H](c2ccc(C(F)(F)F)cc2F)C2CC2)c1` [Example 377, (2R)—N—((R)-cyclopropyl(2-fluoro-4-(trifluoromethyl)phenyl)methyl)-1-(3-(methylsulfonyl)benzoyl)-2,3-dihydro-1H-pyrrole-2-carboxamide], the AC1.4 was 1.216 µM.

`O=C(NCc1ccc(C(F)(F)F)cc1)[C@H]1CCCN1C(=O)[C@H]1CCCN(S(=O)(=O)N2CC(C3CCOC3)C2)C1` (stereo partly drawn) [Example 739, (2R)-1-((3S)-1-((3-(tetrahydrofuran-3-yl)azetidin-l-yl)sulfonyl)piperidine-3-carbonyl)-N-(4-(trifluoromethyl)benzyl)pyrrolidine-2-carboxamide] returned an AC1.4 of 7.1325 µM.

With `N#CC1CN(S(=O)(=O)N2C[C@H]3C[C@@H]2[C@H](C(=O)N2CCC[C@@H]2C(=O)NCc2ccc(C(F)(F)F)cc2F)C3)C1` [Example 103, 1-(((1R,4R,6R)-2-((3-cyano-1-azetidinyl)sulfonyl)-2-azabicyclo[2.2.1]hept-6-yl)carbonyl)-N-(2-fluoro-4-(trifluoromethyl)benzyl)-D-prolinamide], the AC1.4 is 0.1585 µM.

`CCNc1ccccc1C(=O)N1CCC[C@@H]1C(=O)N[C@@H](c1ccc(C(F)(F)F)cc1F)C1CC1` [Example 521, N-((R)-cyclopropyl(2-fluoro-4-(trifluoromethyl)phenyl)methyl)-1-(2-(ethylamino)benzoyl)-D-prolinamide] came in with an AC1.4 of 2.551 µM.

`CN1C[C@H](C(=O)N[C@@H](c2ccc(C(F)(F)F)cc2F)C2CC2)N(C(=O)c2cccc(S(C)(=O)=O)c2)C1=O` [Example 693, (4R)-N-((R)-cyclopropyl(2-fluoro-4-(trifluoromethyl)phenyl)methyl)-1-methyl-3-(3-(methylsulfonyl)benzoyl)-2-oxo-4-imidazolidinecarboxamide] displayed an AC1.4 of 5.425 µM.

In turn, `CC[C@H](NC(=O)[C@H]1CCCN1C(=O)[C@H]1CCCN(S(=O)(=O)N2CC(C#N)C2)C1)c1ccc(C(F)(F)F)cc1` [Example 195, 1-(((3S)-1-((3-cyano-1-azetidinyl)sulfonyl)-3-piperidinyl)carbonyl)-N-((1S)-1-(4-(trifluoromethyl)phenyl)propyl)-D-prolinamide] had an AC1.4 of 0.3859 µM.

`N#CC1CN(S(=O)(=O)N2CCC[C@H](C(=O)N3CCC[C@@H]3C(=O)NCc3cc(C(F)(F)F)ccc3F)C2)C1` [Example 674, 1-(((3S)-1-((3-cyano-1-azetidinyl)sulfonyl)-3-piperidinyl)carbonyl)-N-(2-fluoro-5-(trifluoromethyl)benzyl)-D-prolinamide] showed an AC1.4 of 4.9025 µM.

Regarding `O=C(N[C@@H](c1cc(F)c(Cl)cc1F)C1COC1)[C@H]1C[C@H]2C[C@H]2N1C(=O)c1cccc(S(=O)(=O)CCO)c1` [Example 94, (1R,3R,5R)-N-((R)-(4-chloro-2,5-difluorophenyl)(3-oxetanyl)methyl)-2-(3-((2-hydroxyethyl)sulfonyl)benzoyl)-2-azabicyclo[3.1.0]hexane-3-carboxamide], the AC1.4 turned out to be 0.1425 µM.

As to `CCc1ccnc(C(=O)N2[C@@H](C(=O)N[C@@H](c3ccc(C(F)(F)F)cc3F)C3COC3)C[C@H]3C[C@H]32)c1` [Example 786, (1R,3R,5R)-2-((4-ethyl-2-pyridinyl)carbonyl)-N-((R)-(2-fluoro-4-(trifluoromethyl)phenyl)(3-oxetanyl)methyl)-2-azabicyclo[3.1.0]hexane-3-carboxamide], the AC1.4 came to 8.9175 µM.

For `N#CC1CN(S(=O)(=O)N2CCC[C@H](C(=O)N3CCC[C@@H]3C(=O)NCc3ccc(C(F)(F)F)c(F)c3)C2)C1` [Example 32, 1-(((3S)-1-((3-cyano-1-azetidinyl)sulfonyl)-3-piperidinyl)carbonyl)-N-(3-fluoro-4-(trifluoromethyl)benzyl)-D-prolinamide], the AC1.4 worked out at 0.0335 µM.

For `CC(C)(C)[C@@H](NC(=O)[C@H]1CCCN1C(=O)[C@H]1CCCN(S(=O)(=O)N2CC(C#N)C2)C1)c1ccc(C(F)(F)F)cc1` [Example 740, 1-(((3S)-1-((3-cyano-1-azetidinyl)sulfonyl)-3-piperidinyl)carbonyl)-N-((1R)-2,2-dimethyl-1-(4-(trifluoromethyl)phenyl)propyl)-D-prolinamide], the AC1.4 was 7.156 µM.

With `O=C(NCc1ccc(C(F)(F)F)cc1)[C@H]1CCCN1C(=O)[C@H]1CCCN(S(=O)(=O)N2CC(n3cccn3)C2)C1` [Example 582, 1-(((3S)-1-((3-(1H-pyrazol-1-yl)-1-azetidinyl)sulfonyl)-3-piperidinyl)carbonyl)-N-(4-(trifluoromethyl)benzyl)-D-prolinamide], the AC1.4 was 3.371 µM.

Source of the values: patent US11780826B2 (Amgen Inc., priority 2017, dated 2023).
